# In PMC12186257, “Serendipitous and Systematic Chemoproteomic Discovery of MBLAC2, HINT1, and NME1‑4 Inhibitors from Histone Deacetylase-Targeting Pharmacophores” (ACS Chemical Biology, 2025):
# Experiments:
# PDE1C = target: T1, PDE1C (Homo sapiens, UniProt Q14123); assay: Kinobead competition assay; details: dose-dependent binding; read-out: affinity PDE1C
# T1 construct: endogenous in cells
# Text: The binding of KV-24 and KV-30 to the nucleotide-binding pocket raises the question of whether these compounds also target other nucleotide-binding proteins, such as kinases. To evaluate potential off-target effects, we performed Kinobead competition assays. This chemoproteomic approach is conceptually very similar to the one used here in that broad spectrum kinase inhibitors are immobilized on beads. […] PDE1C is a cAMP/cGMP nucleotide-binding protein that features two divalent metal cation cofactors. The hydroxamic acid moiety of KV-24 might chelate these metal cofactors, supporting the hypothesis that KV-24 binds the active site of PDE1C. […] With the help of our chemoproteomic platform, future structure–activity relationship (SAR) libraries based on the KV-24 and KV-30 scaffolds may be explored to improve selectivity toward either HINT1, kinase targets, or PDE1C. […]
# (§1) LC-MS/MS. The different sample types were measured with different LC-MS/MS settings. MBLAC2 2-dose competition assays were measured with the Lumos1 setup, MBLAC2 9-dose competition assays were measured with the Lumos2 setup, and kinobeads assays were measured with the Eclipse setup.
# Peptides were analyzed via LC–MS/MS on a Dionex Ultimate3000 nano HPLC coupled to either one of two Orbitrap Fusion Lumos mass spectrometers, or to an Orbitrap Eclipse mass spectrometer, operated via the Thermo Scientific Xcalibur software. […]
# [1] = system: compound-binding proteins such as HDACs, MBLAC2, ISOC1/2, ALDH2, and GATD3A; assay: chemoproteomic competition assay, proteome-wide target binding profile; design: species or system human; details: dose-dependent competition
# Method: MBLAC2 is a metalloenzyme predicted to harbor one or two Zn^2+ ions in its active site. […] In this assay, compounds of interest are incubated at increasing concentrations with a mixture of lysates of MV4–11 and SW620 cells. The compound-treated lysates are then mixed with bead-immobilized hydroxamic acid-containing compounds iA, iC, and iQ (immobilized Quisinostat), which pull down compound-binding proteins such as HDACs, MBLAC2, ISOC1/2, ALDH2, and GATD3A (Figure a) that can be identified and quantified by mass spectrometry (MS). Proteins targeted by the library compounds in a preincubation step are prevented from being pulled down by the immobilized probes, leading to a dose-dependent reduction in MS signal. Initially, 12 metal-chelating compounds were profiled at two concentrations (10 μM and 100 μM) (Figure S3).
# Chemoproteomic competition assays
# Sample preparation. For the MBLAC2 and HDAC inhibitor competition assay, the generation of affinity matrices, lysate generation, pulldown assay, and sample preparation were performed as described in detail in REF1. For the kinobeads assay, the generation of affinity matrices, lysate generation, pulldown assay, and sample preparation were performed as described in detail in REF2.
# as §1
# Peptides were analyzed via LC–MS/MS on a Dionex Ultimate3000 nano HPLC coupled to either one of two Orbitrap Fusion Lumos mass spectrometers, or to an Orbitrap Eclipse mass spectrometer, operated via the Thermo Scientific Xcalibur software.
# In the all setups, peptides were loaded on a trap column (100 μm × 2 cm, packed in-house with Reprosil-Gold C18 ODS-3 5 μm resin, Dr. Maisch, Ammerbuch) and washed with 5 μL/min solvent A (0.1% formic acid in HPLC grade water) for 10 min. Peptides were then separated on an analytical column (75 μm × 40 cm, packed in-house with Reprosil-Gold C18 3μm resin, Dr. Maisch, Ammerbuch) using a 50 min gradient ranging from 4 to 32% solvent B (0.1% formic acid, 5% DMSO in acetonitrile) in solvent A (0.1% formic acid, 5% DMSO in HPLC grade water) at a flow rate of 300 nL/min.
# The mass spectrometers were operated in data-dependent mode, automatically switching between MS1 and MS2 spectra. MS1 spectra were acquired over a mass-to-charge (m/z) range of 360–1300 m/z at a resolution of 60,000 (at m/z 200) in the Orbitrap using a maximum injection time of 50 ms and an automatic gain control (AGC) target value of 4e5.
# In Lumos settings, up to 12 peptide precursors were isolated in (isolation width of 1.2 Th for Lumos1 and 1.7 for Lumos2, maximum injection time of 75 ms, AGC value of 1e5 for Lumos1 and 2e5 for Lumos2), fragmented by HCD using 30% normalized collision energy (NCE) and analyzed in the Orbitrap at a resolution of 15,000 (Lumos2) or 30,000 (Lumos1). The dynamic exclusion duration of fragmented precursor ions was set to 20 s (Lumos1) or 30 s (Lumos2). In Eclipse measurements, a cycle time of 2 s was chosen. Peptides were isolated in the quadrupole with an isolation offset of 1.2 (isolation width of 1.2 Th, maximum injection time of 54 ms, AGC target of 200%) and fragmented by […]
# T1 sequence (Q14123 whole entry): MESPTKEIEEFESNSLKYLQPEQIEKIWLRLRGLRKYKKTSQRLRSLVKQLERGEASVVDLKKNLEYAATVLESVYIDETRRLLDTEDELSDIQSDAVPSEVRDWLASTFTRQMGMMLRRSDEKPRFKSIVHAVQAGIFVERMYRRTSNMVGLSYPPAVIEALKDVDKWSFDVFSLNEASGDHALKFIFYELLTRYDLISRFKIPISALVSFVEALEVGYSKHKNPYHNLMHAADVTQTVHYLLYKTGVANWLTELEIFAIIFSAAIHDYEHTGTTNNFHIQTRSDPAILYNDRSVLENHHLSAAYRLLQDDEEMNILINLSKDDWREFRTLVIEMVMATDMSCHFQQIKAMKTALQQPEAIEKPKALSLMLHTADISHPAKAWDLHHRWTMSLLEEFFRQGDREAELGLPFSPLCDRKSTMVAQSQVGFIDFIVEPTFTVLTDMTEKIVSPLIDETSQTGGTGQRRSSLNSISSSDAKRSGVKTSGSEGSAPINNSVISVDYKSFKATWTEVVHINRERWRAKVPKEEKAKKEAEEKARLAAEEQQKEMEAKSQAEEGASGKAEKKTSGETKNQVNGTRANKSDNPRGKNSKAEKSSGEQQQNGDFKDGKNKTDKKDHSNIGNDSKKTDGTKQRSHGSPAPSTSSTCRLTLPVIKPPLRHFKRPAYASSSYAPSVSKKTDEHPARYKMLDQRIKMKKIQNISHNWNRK
SMILES,Kd (PDE1C) [µM],targets / off-targets bound [1]
O=C(NO)c1ccc(-c2nc3ccccc3n3cccc23)cc1 [KV-24],~2,bound to HINT1 and NME4
O=C(NO)c1ccc(-c2nc3ccccc3c3ccccc23)cc1 [KV-30],,bound to HINT1 and NME4
